From PubChem BioAssay (NCI)
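Five compound concentrations were applied to cells in 96-well plates for 48 hours; endpoints were derived by simple linear interpolation of the resulting dose-response curve. Definition used: TGI = concentration required for complete inhibition of growth.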

What was measured:
Test in all cases: NCI tumour cell line growth inhibition, 48 h
TK-10 renal = tested on: TK-10 renal
UACC-62 melanoma = tested on: UACC-62 melanoma
HOP-62 NSCLC = tested on: HOP-62 NSCLC
KM12 colon = tested on: KM12 colon
M14 melanoma = tested on: M14 melanoma
SF-295 CNS = tested on: SF-295 CNS
NCI-H226 lung = tested on: NCI-H226 lung
RXF 393 renal = tested on: RXF 393 renal
SW-620 colon = tested on: SW-620 colon
RPMI-8226 leukemia = tested on: RPMI-8226 leukemia
A498 renal = tested on: A498 renal
SN12C renal = tested on: SN12C renal
SF-539 CNS = tested on: SF-539 CNS
HS 578T breast = tested on: HS 578T breast
SK-OV-3 ovarian = tested on: SK-OV-3 ovarian
OVCAR-8 ovarian = tested on: OVCAR-8 ovarian
SR leukemia = tested on: SR leukemia
SNB-75 CNS = tested on: SNB-75 CNS
MOLT-4 leukemia = tested on: MOLT-4 leukemia
COLO 205 colon = tested on: COLO 205 colon
HOP-92 NSCLC = tested on: HOP-92 NSCLC
DU-145 prostate = tested on: DU-145 prostate
NCI-H460 lung = tested on: NCI-H460 lung
NCI/ADR-RES ovarian = tested on: NCI/ADR-RES ovarian
MCF7 breast = tested on: MCF7 breast
A549 NSCLC = tested on: A549 NSCLC
ACHN renal = tested on: ACHN renal
BT-549 breast = tested on: BT-549 breast
786-0 renal = tested on: 786-0 renal
UO-31 renal = tested on: UO-31 renal
HCT-116 colon = tested on: HCT-116 colon
HCC-2998 colon = tested on: HCC-2998 colon
CCRF-CEM leukemia = tested on: CCRF-CEM leukemia
OVCAR-5 ovarian = tested on: OVCAR-5 ovarian
MDA-MB-231 breast = tested on: MDA-MB-231 breast
OVCAR-4 ovarian = tested on: OVCAR-4 ovarian
SF-268 CNS = tested on: SF-268 CNS
MDA-MB-435 = tested on: MDA-MB-435
K-562 leukemia = tested on: K-562 leukemia
U251 CNS = tested on: U251 CNS
MALME-3M melanoma = tested on: MALME-3M melanoma
HCT-15 colon = tested on: HCT-15 colon
SNB-19 CNS = tested on: SNB-19 CNS
NCI-H23 lung = tested on: NCI-H23 lung
T-47D breast = tested on: T-47D breast
OVCAR-3 ovarian = tested on: OVCAR-3 ovarian
MDA-N = tested on: MDA-N
HL-60(TB) leukemia = tested on: HL-60(TB) leukemia
IGROV1 ovarian = tested on: IGROV1 ovarian
HT29 colon = tested on: HT29 colon
PC-3 prostate = tested on: PC-3 prostate
SK-MEL-28 melanoma = tested on: SK-MEL-28 melanoma
LOX IMVI melanoma = tested on: LOX IMVI melanoma
SK-MEL-5 melanoma = tested on: SK-MEL-5 melanoma
UACC-257 melanoma = tested on: UACC-257 melanoma
SK-MEL-2 melanoma = tested on: SK-MEL-2 melanoma
CAKI-1 renal = tested on: CAKI-1 renal
EKVX NSCLC = tested on: EKVX NSCLC

`CCCc1c(Cl)nc(Cl)nc1Cl` was tested, and the TGI (TK-10 renal) was 18.5 µM, the TGI (UACC-62 melanoma) was > 100 µM and the TGI (HOP-62 NSCLC) was 7.79 µM. The TGI (KM12 colon) was 15.8 µM, the TGI (M14 melanoma) was > 37.9 µM and the TGI (SF-295 CNS) was 12.3 µM. For the same compound, the TGI (NCI-H226 lung) was 0.0913 µM, the TGI (RXF 393 renal) was 4.93 µM and the TGI (SW-620 colon) was 12.7 µM. The TGI (RPMI-8226 leukemia) was > 33.1 µM, the TGI (A498 renal) was 34.7 µM and the TGI (SN12C renal) was 5.51 µM. The TGI (SF-539 CNS) was 5.84 µM, the TGI (HS 578T breast) was 27.6 µM and the TGI (SK-OV-3 ovarian) was > 100 µM. The TGI (OVCAR-8 ovarian) was > 19.9 µM, the TGI (SR leukemia) was 2.15 µM and the TGI (SNB-75 CNS) was 28.1 µM. It also gave a TGI (MOLT-4 leukemia) of 10.7 µM, a TGI (COLO 205 colon) of 0.706 µM and a TGI (HOP-92 NSCLC) of 11.9 µM. It also gave a TGI (DU-145 prostate) of 9.82 µM, a TGI (NCI-H460 lung) of 12.7 µM and a TGI (NCI/ADR-RES ovarian) of 7.53 µM. For the same compound, the TGI (MCF7 breast) was 16.3 µM, the TGI (A549 NSCLC) was 24.6 µM and the TGI (ACHN renal) was 10.7 µM. The TGI (BT-549 breast) was 4.37 µM, the TGI (786-0 renal) was 11.2 µM and the TGI (UO-31 renal) was > 55.4 µM. For the same compound, the TGI (HCT-116 colon) was 22.8 µM, the TGI (HCC-2998 colon) was 15.6 µM and the TGI (CCRF-CEM leukemia) was 0.0921 µM. For the same compound, the TGI (OVCAR-5 ovarian) was 17.5 µM, the TGI (MDA-MB-231 breast) was 7.99 µM and the TGI (OVCAR-4 ovarian) was 26.3 µM. The TGI (SF-268 CNS) was > 68 µM, the TGI (MDA-MB-435) was 2.44 µM and the TGI (K-562 leukemia) was 1.53 µM. It also gave a TGI (U251 CNS) of 7.95 µM, a TGI (MALME-3M melanoma) of 4.95 µM and a TGI (HCT-15 colon) of 3.71 µM. For the same compound, the TGI (SNB-19 CNS) was 21.1 µM, the TGI (NCI-H23 lung) was 4.3 µM and the TGI (T-47D breast) was 11.7 µM. For the same compound, the TGI (OVCAR-3 ovarian) was 5.46 µM, the TGI (MDA-N) was 0.548 µM and the TGI (HL-60(TB) leukemia) was 3.01 µM. For the same compound, the TGI (IGROV1 ovarian) was > 37.3 µM, the TGI (HT29 colon) was 4.02 µM and the TGI (PC-3 prostate) was 28.6 µM. The TGI (SK-MEL-28 melanoma) was 1.45 µM, the TGI (LOX IMVI melanoma) was 0.461 µM and the TGI (SK-MEL-5 melanoma) was 2.54 µM. It also gave a TGI (UACC-257 melanoma) of 11.1 µM and a TGI (SK-MEL-2 melanoma) of 4.35 µM.

For `Cc1c(C(=O)OCc2ccccc2)[n+](=O)c2ccccc2n1[O-]`, the TGI (TK-10 renal) was 84.6 µM, the TGI (UACC-62 melanoma) was > 100 µM and the TGI (HOP-62 NSCLC) was 61.2 µM. The TGI (KM12 colon) was > 100 µM, the TGI (M14 melanoma) was > 100 µM and the TGI (SF-295 CNS) was > 100 µM. The TGI (NCI-H226 lung) was 57.1 µM, the TGI (RXF 393 renal) was 69.1 µM and the TGI (RPMI-8226 leukemia) was 30.5 µM. The TGI (A498 renal) was 94.3 µM, the TGI (SN12C renal) was > 100 µM and the TGI (SF-539 CNS) was > 100 µM. For the same compound, the TGI (HS 578T breast) was 72.9 µM, the TGI (SK-OV-3 ovarian) was > 100 µM and the TGI (OVCAR-8 ovarian) was > 100 µM. For the same compound, the TGI (SR leukemia) was 47.3 µM, the TGI (SNB-75 CNS) was 56.5 µM and the TGI (MOLT-4 leukemia) was 43 µM. It also gave a TGI (COLO 205 colon) of 37.6 µM, a TGI (HOP-92 NSCLC) of 13.4 µM and a TGI (DU-145 prostate) of 47.8 µM. The TGI (NCI-H460 lung) was > 100 µM, the TGI (NCI/ADR-RES ovarian) was 93.8 µM and the TGI (CAKI-1 renal) was 80.5 µM. The TGI (MCF7 breast) was > 100 µM, the TGI (A549 NSCLC) was 70.7 µM and the TGI (ACHN renal) was > 100 µM. The TGI (BT-549 breast) was > 100 µM, the TGI (786-0 renal) was > 100 µM and the TGI (UO-31 renal) was 86.3 µM. The TGI (HCT-116 colon) was 65.6 µM, the TGI (HCC-2998 colon) was > 100 µM and the TGI (CCRF-CEM leukemia) was 0.199 µM. The TGI (OVCAR-5 ovarian) was > 100 µM, the TGI (MDA-MB-231 breast) was 64.8 µM and the TGI (OVCAR-4 ovarian) was 85 µM. For the same compound, the TGI (SF-268 CNS) was > 100 µM, the TGI (MDA-MB-435) was 75.2 µM and the TGI (K-562 leukemia) was > 100 µM. The TGI (U251 CNS) was > 100 µM, the TGI (HCT-15 colon) was > 100 µM and the TGI (SNB-19 CNS) was > 100 µM. The TGI (NCI-H23 lung) was 95.7 µM, the TGI (T-47D breast) was 57.2 µM and the TGI (OVCAR-3 ovarian) was > 100 µM. For the same compound, the TGI (EKVX NSCLC) was 91.5 µM, the TGI (MDA-N) was > 100 µM and the TGI (HL-60(TB) leukemia) was 77.4 µM. For the same compound, the TGI (IGROV1 ovarian) was 34.1 µM, the TGI (HT29 colon) was > 100 µM and the TGI (PC-3 prostate) was > 100 µM. The TGI (SK-MEL-28 melanoma) was > 100 µM, the TGI (LOX IMVI melanoma) was 44.8 µM and the TGI (SK-MEL-5 melanoma) was 53.6 µM. For the same compound, the TGI (UACC-257 melanoma) was 56.1 µM and the TGI (SK-MEL-2 melanoma) was > 100 µM.

In the case of `CN(C)C=Nc1ccc2[nH]c3ccccc3c2c1`, the TGI (TK-10 renal) is reported as 86.2 µM, the TGI (UACC-62 melanoma) is reported as 40.6 µM and the TGI (HOP-62 NSCLC) is reported as 57.7 µM. For the same compound, the TGI (M14 melanoma) was 29.1 µM, the TGI (SF-295 CNS) was > 100 µM and the TGI (NCI-H226 lung) was 84 µM. The TGI (RXF 393 renal) was 79 µM, the TGI (RPMI-8226 leukemia) was 60.4 µM and the TGI (A498 renal) was 60.1 µM. For the same compound, the TGI (SN12C renal) was > 100 µM, the TGI (SF-539 CNS) was 50.5 µM and the TGI (HS 578T breast) was > 100 µM. The TGI (SK-OV-3 ovarian) was > 100 µM, the TGI (OVCAR-8 ovarian) was > 100 µM and the TGI (SR leukemia) was 41 µM. The TGI (SNB-75 CNS) was > 100 µM, the TGI (MOLT-4 leukemia) was 83.3 µM and the TGI (COLO 205 colon) was 30.2 µM. For the same compound, the TGI (HOP-92 NSCLC) was 39 µM, the TGI (DU-145 prostate) was > 100 µM and the TGI (NCI/ADR-RES ovarian) was > 100 µM. The TGI (CAKI-1 renal) was > 100 µM, the TGI (MCF7 breast) was > 100 µM and the TGI (A549 NSCLC) was > 100 µM. The TGI (ACHN renal) was > 100 µM, the TGI (BT-549 breast) was > 100 µM and the TGI (786-0 renal) was 70 µM. For the same compound, the TGI (UO-31 renal) was 88.1 µM, the TGI (HCT-116 colon) was > 100 µM and the TGI (CCRF-CEM leukemia) was > 100 µM. For the same compound, the TGI (OVCAR-5 ovarian) was 96.5 µM, the TGI (MDA-MB-231 breast) was 43.1 µM and the TGI (OVCAR-4 ovarian) was > 100 µM. For the same compound, the TGI (SF-268 CNS) was > 100 µM, the TGI (MDA-MB-435) was 33.9 µM and the TGI (K-562 leukemia) was 43.4 µM. The TGI (U251 CNS) was 68.6 µM, the TGI (MALME-3M melanoma) was 54.7 µM and the TGI (HCT-15 colon) was 46.5 µM. For the same compound, the TGI (SNB-19 CNS) was > 100 µM, the TGI (NCI-H23 lung) was > 100 µM and the TGI (T-47D breast) was 97.7 µM. The TGI (OVCAR-3 ovarian) was > 100 µM, the TGI (EKVX NSCLC) was > 100 µM and the TGI (MDA-N) was 33 µM. For the same compound, the TGI (HL-60(TB) leukemia) was 41.7 µM, the TGI (IGROV1 ovarian) was > 100 µM and the TGI (HT29 colon) was 43.8 µM. The TGI (PC-3 prostate) was > 100 µM, the TGI (SK-MEL-28 melanoma) was 40 µM and the TGI (LOX IMVI melanoma) was 34.2 µM. For the same compound, the TGI (SK-MEL-5 melanoma) was 30.4 µM, the TGI (UACC-257 melanoma) was 30.3 µM and the TGI (SK-MEL-2 melanoma) was 35.3 µM.
